This data set deals with TNF-α induced IL-6. The data set is described as follows: TNF-α-induced IL-6 production determined by IL-6 ELISA. The data set is classed as cell-based. The note with it: for inhibition at 10 µM: read-out: Inflammation Data, inhibition at 10 uM; for Inflammation Data (result in words): concentration not given; for activity at 10 µM: class = % of control IL6 production. The procedure: Human aortic endothelial cells (HAEC, Clonetics) were cultured according to manufacturer in growth medium (Clonetics): basal medium containing human epidermal growth factor, hydrocortisone, vascular endothelial growth factor, heparin binding growth factor-B, long R3-insulin-like growth factor-1, ascorbic acid, gentamicin/amphotericin and 5% FBS. These cell were allowed to reach at least 90% confluency before subjected to experimental treatments. […] Tumor necrosis factor α was from R&D Systems.
All treatments, compound-added and controls were carried out in serum free media containing 0.2% albumin. Media from all conditions were collected and used for IL-6 ELISA.
IL-6 ELISA was carried out using human IL-6 DuoSet ELISA development kit as described by manufacturer (R&D Systems). Mouse anti-human Il-6 was used as the capture antibody (2 ug/ml) and biotinylated goat anti-human IL-6 (200 ng/ml) was used as the detection antibody. Culture media were incubated with capture antibody (in 96 well) for 2 h at room temperature. Wells were washed three times with wash buffer (0.05% tween-20 in phosphate buffered saline (PBS) pH 7.4) followed by incubation with detection antibody for 2 h at room temperature. Following three washes wells were incubated with Streptavidin-HRP for 20 min. Color development was read at 450 nm in a Microplate reader.
On the technique in general: ELISA stands for enzyme-linked immunosorbent assay.

[1] abbreviates: Homo sapiens, 24 h, Table 5, second part, column 1, read-out: Inhibition of TNF-induced IL6, production.
[2] abbreviates: Homo sapiens, 24 h, Table 5, first part, read-out: Inhibition of TNF-induced IL6 production.

The structures appear in SMILES notation. Read-outs that look alike come from different tables or passages of the source.

The inhibition is how much of the control response was suppressed.

Take `COc1ccc(Nc2nc(NC3CCCCCC3)nc(OC3CCCNC3)n2)cc1Cl` (stereo not drawn): the “Inflammation Data, cell death at 10 uM” value (10 uM) came out at 20%. For the same molecule, where the note is “Homo sapiens, 10 uM”, the inhibition at 10 µM came to 60%.
For the molecule `COc1ccc(Nc2nc(NC3CCCCCC3)nc(OC3CCNCC3)n2)cc1Cl`, the “Inflammation Data, cell death at 10 uM” value (10 uM) is listed as 20%.
On to `COc1ccc(Nc2nc(NC3CCCCCC3)nc(OCC3CCCN3C)n2)cc1Cl` (stereo not drawn), for which, where the note is “10 uM”, the “Inflammation Data, cell death at 10 uM” value was “total cell death” and the “Inflammation Data, inhibition at 10 uM” value was “complete inhibition”.
As to `COc1ccc(Nc2nc(NC3CCCCCC3)nc(OCCOc3ccccc3F)n2)cc1Cl`, the “Inflammation Data (result in words)” value is given as “Not Active”.
For the molecule `COc1ccc(Nc2nc(NC3CCCCCC3)nc(OCc3cccc(C)n3)n2)cc1Cl`, the inhibition at 10 µM (Homo sapiens, 10 uM) was 60%.
For the molecule `CN(c1nc(Nc2ccc(O)cc2)nc(NC2CCCCCC2)n1)C1CCNCC1`, the inhibition at 5 µM (Homo sapiens, read-out: Inflammation Data, inhibition at 5 uM) is 50%. The “Inflammation Data, cell death at 5 uM” value (human, 24 h, 5 µM) was 20%. Further, the “Inflammation Data, cell death at 10 uM” value (human, 24 h, 10 µM) is reported as “total cell death”.
As for `COc1ccc(Nc2nc(NC3CCCCCC3)nc(NC3CCNCC3)n2)cc1`, the “Inflammation Data, cell death at 5 uM” value (5 uM) is on record as 20%. Also, for the setting “10 uM”, the “Inflammation Data, cell death at 10 uM” value is on record as more than 50%.
For `COc1ccc(Nc2nc(NC3CC3)nc(N(C)C3CCN(C)CC3)n2)cc1Cl`, the “Inflammation Data (result in words)” value is “Not active”. The “Inflammation Data, cell death at 10 uM” value (10 uM) came to 15%.
Take `CCN1CCCC1CNc1nc(Nc2ccc3ncccc3c2)nc(NC2CCCCCC2)n1` (stereo not drawn) [Compound 4, N^2-cycloheptyl-N^4-[(1-ethyl-2-pyrrolidinyl)methyl]-N^6-(6-quinolinyl)-1,3,5-triazine-2,4,6-triamine]: the activity at 10 µM under setting [1] fell in the range of 0 to 25%.
Still for that read-out and setting: the result for `CCN1CCCC1CNc1nc(Nc2ccc(F)cc2)nc(NC2CCCCCC2)n1` (stereo not drawn) [Compound 10, N^2-cycloheptyl-N^4-[(1-ethyl-2-pyrrolidinyl)methyl]-N^6-(4-fluorophenyl)-1,3,5-triazine-2,4,6-triamine] reads 0 to 25%; that for `CCN1CCCC1CNc1nc(Nc2ccc(C#N)cc2)nc(NC2CCCCCC2)n1` (stereo not drawn) [Compound 11, 4-[(4-(cycloheptylamino)-6-{[(1-ethyl-2-pyrrolidinyl)methyl]amino}-1,3,5-triazin-2-yl)-amino]benzonitrile], 0 to 25%.
Consider `CCN1CCCC1CNc1nc(Nc2ccc3c(c2)OCCO3)nc(NC2CCCCCC2)n1` (stereo not drawn) [Compound 24, N^2-cycloheptyl-N^4-(2,3-dihydro-1,4-benzodioxin-6-yl)-N^6-[(1-ethyl-2-pyrrolidinyl)methyl]-1,3,5-triazine-2,4,6-triamine], for which the activity at 10 µM under setting [1] lay in the range of 0 to 25%.
The same measure, in the same setting: as for `CCN1CCCC1CNc1nc(Nc2ccc(N(C)C)cc2)nc(NC2CCCCCC2)n1` (stereo not drawn) [Compound 25, N^2-cycloheptyl-N^4-[4-(dimethylamino)phenyl]-N^6-[(1-ethyl-2-pyrrolidinyl)methyl]-1,3,5-triazine-2,4,6-triamine], the figure is 0 to 25%.
As for `CCN(CC)c1ccc(Nc2nc(NCC3CCCN3CC)nc(NC3CCCCCC3)n2)cc1Cl` (stereo not drawn) [Compound 26, N^2-[3-chloro-4-(diethylamino)phenyl]-N^4-cycloheptyl-N^6-[(1-ethyl-2-pyrrolidinyl)methyl]-1,3,5-triazine-2,4,6-triamine], under “HAEC, 10 uM compound, seen in the TNF IL6 test”, the cells floating is more than 50%. Moreover, the activity at 10 µM under setting [2] fell in the range of 0 to 25%.
On to `CCN1CCCC1CNc1nc(Nc2ccc(N3CCOCC3)cc2)nc(NC2CCCCCC2)n1` (stereo not drawn) [Compound 27, N^2-cycloheptyl-N^4-[(1-ethyl-2-pyrrolidinyl)methyl]-N^6-[4-(4-morpholinyl)phenyl]-1,3,5-triazine-2,4,6-triamine], for which the activity at 10 µM reads like this: under setting [2], 0 to 25%; under setting [1], 0 to 25%.
Take `CCN1CCCC1CNc1nc(Nc2ccc(N3CCN(C)CC3)cc2)nc(NC2CCCCCC2)n1` (stereo not drawn) [Compound 28, N^2-cycloheptyl-N^4-[(1-ethyl-2-pyrrolidinyl)methyl]-N^6-[4-(4-methyl-1-piperazinyl)phenyl]-1,3,5-triazine-2,4,6-triamine]: under setting [2], the activity at 10 µM fell in the range of 0 to 25%.
As for `CCN1CCCC1CNc1nc(Nc2ccc(NC(C)=O)cc2)nc(NC2CCCCCC2)n1` (stereo not drawn) [Compound 29, N-{4-[(4-(cycloheptylamino)-6-{[(1-ethyl-2-pyrrolidinyl)methyl]amino}-1,3,5-triazin-2-yl)-amino]phenyl}acetamide], the activity at 10 µM under setting [2] was in the range of 0 to 25% and the activity at 10 µM under setting [1] was in the range of 0 to 25%.
For `CCN1CCCC1CNc1nc(Nc2cccc(NC(C)=O)c2)nc(NC2CCCCCC2)n1` (stereo not drawn) [Compound 30, N-{3-[(4-(cycloheptylamino)-6-{[(1-ethyl-2-pyrrolidinyl)methyl]amino}-1,3,5-triazin-2-yl)-amino]phenyl}acetamide], the activity at 10 µM reads like this: under setting [2], 0 to 25%; under setting [1], 0 to 25%.
For the molecule `CCOc1ccc(Nc2nc(NCC3CCCN3CC)nc(NC3CCCCCC3)n2)cc1` (stereo not drawn) [Compound 32, N^2-cycloheptyl-N^4-(4-ethoxyphenyl)-N^6-[(1-ethyl-2-pyrrolidinyl)methyl]-1,3,5-triazine-2,4,6-triamine], the activity at 10 µM under setting [1] lay within 0 to 25%.
`CCN1CCCC1CNc1nc(Nc2ccccn2)nc(NC2CCCCCC2)n1` (stereo not drawn) [Compound 34, N^2-cycloheptyl-N^4-[(1-ethyl-2-pyrrolidinyl)methyl]-N^6-(2-pyridinyl)-1,3,5-triazine-2,4,6-triamine]: the activity at 10 µM was in the range of 0 to 25% under setting [2] and 0 to 25% under setting [1].
Regarding `CCN1CCCC1CNc1nc(Nc2ccccc2C)nc(NC2CCCCCC2)n1` (stereo not drawn) [Compound 35, N^2-cycloheptyl-N^4-[(1-ethyl-2-pyrrolidinyl)methyl]-N^6-(2-methylphenyl)-1,3,5-triazine-2,4,6-triamine], the activity at 10 µM under setting [2] fell in the range of 25 to 50% and the activity at 10 µM under setting [1] lay within 0 to 25%.
As for `CCN1CCCC1CNc1nc(NC2CCCCCC2)nc(N(C)c2ccc(Cl)cc2)n1` (stereo not drawn) [Compound 40, N^2-(4-chlorophenyl)-N^4-cycloheptyl-N^6-[(1-ethyl-2-pyrrolidinyl)methyl]-N^2-methyl-1,3,5-triazine-2,4,6-triamine], the activity at 10 µM under setting [1] lay within 0 to 25%.
For the molecule `CCN1CCCC1CNc1nc(NC2CCCCCC2)nc(N(CCC#N)c2ccccc2)n1` (stereo not drawn) [Compound 41, 3-[(4-(cycloheptylamino)-6-{[(1-ethyl-2-pyrrolidinyl)methyl]amino}-1,3,5-triazin-2-yl)-(phenyl)amino]propanenitrile], the activity at 10 µM under setting [1] lay in the range of 0 to 25%.
`CCN1CCCC1CNc1nc(NC2CCCCCC2)nc(N(C)c2ccc(OC)cc2)n1` (stereo not drawn) [Compound 42, N^2-cycloheptyl-N^4-[(1-ethyl-2-pyrrolidinyl)methyl]-N^6-(4-methoxyphenyl)-N^6-methyl-1,3,5-triazine-2,4,6-triamine]: the activity at 10 µM reads like this: under setting [2], 0 to 25%; under setting [1], 0 to 25%.
Take `CCN1CCCC1CNc1nc(NC2CCCCCC2)nc(N(C)c2ccc(F)cc2F)n1` (stereo not drawn) [Compound 43, N^2-cycloheptyl-N^4-(2,4-difluorophenyl)-N^6-[(1-ethyl-2-pyrrolidinyl)methyl]-N^4-methyl-1,3,5-triazine-2,4,6-triamine]: the activity at 10 µM under setting [1] was 0 to 25%.
The same measure, in the same setting: as for `CCN1CCCC1CNc1nc(NC2CCCCCC2)nc(N(CC#N)c2ccccc2)n1` (stereo not drawn) [Compound 44, [(4-(cycloheptylamino)-6-{[(1-ethyl-2-pyrrolidinyl)methyl]amino}-1,3,5-triazin-2-yl)(phenyl)amino]acetonitrile], the figure is 0 to 25%.
Still for that read-out and setting: the result for `CCN1CCCC1CNc1nc(NC2CCCCCC2)nc(N(C)c2cccc(Cl)c2)n1` (stereo not drawn) [Compound 45, N^2-(3-chlorophenyl)-N^4-cycloheptyl-N^6-[(1-ethyl-2-pyrrolidinyl)methyl]-N^2-methyl-1,3,5-triazine-2,4,6-triamine] reads 0 to 25%; that for `CCN1CCCC1CNc1nc(NC2CCCCCC2)nc(N(C)c2ccccc2C(F)(F)F)n1` (stereo not drawn) [Compound 46, N^2-cycloheptyl-N^4-[(1-ethyl-2-pyrrolidinyl)methyl]-N^6-methyl-N^6-[2-(trifluoromethyl)phenyl]-1,3,5-triazine-2,4,6-triamine], 0 to 25%.
Consider `CCN1CCCC1CNc1nc(Nc2ccc(OC)c(Cl)c2)nc(NC2CCCCCC2)n1` (stereo not drawn) [Compound 48, N^2-(3-chloro-4-methoxyphenyl)-N^4-cycloheptyl-N^6-[(1-ethyl-2-pyrrolidinyl)methyl]-1,3,5-triazine-2,4,6-triamine], for which the activity at 10 µM under setting [2] was 25 to 50%.
Same read-out and setting: as for `CCNc1nc(NCC2CCCN2CC)nc(Nc2ccc(OC)c(F)c2)n1` (stereo not drawn) [Compound 51, N^2-ethyl-N^4-[(1-ethyl-2-pyrrolidinyl)methyl]-N^6-(3-fluoro-4-methoxyphenyl)-1,3,5-triazine-2,4,6-triamine], the figure is 0 to 25%.
With `CCN1CCCC1CNc1nc(Nc2ccc(OC)c(F)c2)nc(NC(C)(C)C)n1` (stereo not drawn) [Compound 52, N^2-(tert-butyl)-N^4-[(1-ethyl-2-pyrrolidinyl)methyl]-N^6-(3-fluoro-4-methoxyphenyl)-1,3,5-triazine-2,4,6-triamine], the activity at 10 µM under setting [2] lay within 0 to 25% and the activity at 10 µM under setting [1] was in the range of 25 to 50%.

The values above are taken from patent publication US7332489B2, “Methods and compositions of novel triazine compounds” (Reddy US Therapeutics, Inc., priority 2003, dated 2008).
